In patent publication US7763596B2, “Selective glucocorticoid receptor agonists” (The University of Manchester, priority 2000, dated 2010):

Assays:
CEM-C7A cells = experiment: Apoptosis assay in CEM-C7A cells (viable cell count, MTS); assay type: cell-based, human; conditions: CEM C7A cells, 100 nM, three day incubation
Protocol: The CEM-C7A cell line is a steroid sensitive clone of the CCRF-CEM cell line (ECACC 85112105). This is a T lymphoblastoid cell line with functional endogenous GR.
Apoptosis (programmed cell death) is mediated by a protein called Bax the transcription of which is primarily controlled by the GR in a ligand dependant manner. To measure the ability of a GR ligand to effect apoptosis a suitable cell line was incubated with ligand and a viable cell count was performed after three days.
CEM-C7A cells were plated out on to a 96well plate at 5×10^5/well. The steroids of FIGS. 1 and 2A were added immediately to generate a final concentration of 100 nM. After a three day incubation the live cell number in each well was assessed using Celltiter 96 Aqueous Non-Radioactive Cell Proliferation Assay (Promega). This assay is a calorimetric method for determining the number of viable cells in proliferation or chemosensitivity assays.
Briefly, the assay is composed of solutions of a novel tetrazolium compound (3-(4,5-dimethylthiazol-2-yl)-5-(3-carboxymethoxyphenyl)-2-(4-sulfophenyl)-2H-tetrazolium, MTS) and an electron coupling reagent (phenazine methosulfate; PMS). MTS is bioreduced by cells into a formazan product that is soluble in tissue culture medium. The absorbance of the formazan at 490 nm can be measured directly from 96 well assay plates without additional processing. The conversion of MTS into aqueous, soluble formazan is accomplished by dehydrogenase enzymes found in metabolically active cells. The quantity of formazan product as measured by the amount of 490 nm absorbance is directly proportional to the number of living cells in culture.

glucocorticoid receptor = target: T1, glucocorticoid receptor (Homo sapiens, UniProt P04150); experiment: Type II antagonist activity assay: competition of dexamethasone transactivation; assay type: cell-based; set-up: expressed in transfected cells; host or cells: COS 7 (African green monkey kidney, deficient in endogenous GR); conditions: COS7 cells stimulated with 1 nM dexamethasone
T1 sequence (P04150 1-777): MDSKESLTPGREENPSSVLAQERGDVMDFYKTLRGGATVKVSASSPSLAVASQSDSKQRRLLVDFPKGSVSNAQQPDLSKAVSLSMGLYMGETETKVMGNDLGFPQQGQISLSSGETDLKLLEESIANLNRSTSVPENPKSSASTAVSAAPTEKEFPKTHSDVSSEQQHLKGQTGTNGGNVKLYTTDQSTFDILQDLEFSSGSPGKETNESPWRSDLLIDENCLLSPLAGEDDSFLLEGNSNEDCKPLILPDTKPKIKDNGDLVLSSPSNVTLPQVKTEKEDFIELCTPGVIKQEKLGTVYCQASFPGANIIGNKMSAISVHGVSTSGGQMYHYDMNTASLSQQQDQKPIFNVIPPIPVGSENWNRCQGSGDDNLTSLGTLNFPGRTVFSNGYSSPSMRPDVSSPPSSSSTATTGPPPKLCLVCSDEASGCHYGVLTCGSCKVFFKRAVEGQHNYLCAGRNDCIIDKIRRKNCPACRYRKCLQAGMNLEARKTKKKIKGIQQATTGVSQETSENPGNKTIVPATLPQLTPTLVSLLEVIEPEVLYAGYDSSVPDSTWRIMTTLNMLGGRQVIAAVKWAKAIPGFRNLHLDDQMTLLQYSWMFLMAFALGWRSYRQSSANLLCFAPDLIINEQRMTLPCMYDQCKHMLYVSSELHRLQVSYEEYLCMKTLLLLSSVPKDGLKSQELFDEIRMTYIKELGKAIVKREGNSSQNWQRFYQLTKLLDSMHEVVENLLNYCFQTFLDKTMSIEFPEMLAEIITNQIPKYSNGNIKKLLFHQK
Protocol: A type II antagonist should be able to compete agonist activity. As an antagonist has no ability to transactivate, competition can be measured by inhibition of an agonist in a transactivation assay.
As with the standard transactivation assay previously described, the GR was artificially expressed in a cell line lacking endogenous GR and a GRE “driving” a luciferase reporter gene was used to measure ligand dependent activation. COS7 cells were transfected with 1 μg pcDNA3-GR and 3 μg AH3-Luc per 10 cm tissue culture dish. The cells were plated out in to 24 well plates after transfection and the steroids were added immediately. […] Certain steroids from FIG. 2A were added at the same concentration to all sample wells. After 18 hour incubation the cells were lysed and a luciferase assay was performed.

GFP tagged GR = target: T2, GFP tagged GR (Homo sapiens, UniProt P04150); experiment: Nuclear translocation using GFP tagged GR and fluorescent microscopy; assay type: cell-based; conditions: COS 7 cells, 100 nM, 3 hours
T2 construct: expressed in transfected cells; host or cells: COS 7
T2 sequence (P04150 1-777): T1 sequence (P04150 1-777)
Text: The un-liganded GR is present in the cytoplasm of cells in association with heat shock proteins (HSPs). The binding of an agonist ligand to the GR causes dissociation from the HSPs and translocation to the nucleus. A type I antagonist ligand can bind to the GR but cannot translocate to the nucleus. A type II antagonist ligand can bind to the GR, translocate to the nucleus and bind to DNA but cannot activate gene transcription. Therefore, the ability of a putative ligand to translocate the GR helps to determine its status as an agonist or antagonist. COS 7 cells were transfected with 5 μg of a green fluorescent protein (GFP) tagged GR expression vector. After transfection, these cells were split into 6 well plates with sterile microscope cover slips placed at the bottom of each well. The cells were allowed to recover for 18 hours and then the medium was removed, the cells were washed three times with sterile phosphate buffered saline (PBS) and new medium was added containing charcoal stripped FCS in place of normal FCS. The cells were incubated for 18 hours and then the steroids of FIGS. 1 and 2A were added to make a final concentration of 100 nM. The cells were incubated for a further 3 hours and then the medium was aspirated and the cells were fixed to the glass coverslips by adding ice cold methanol and incubating at −20° C. for 30 mins. The coverslips with the transfected cells fixed to them were mounted on slides and the cellular localisation of the GFP tagged GR was analysed by fluorescent microscopy using an Axioplan 2 microscope (Zeiss, Oberkochen, Germany) and KS300 v3.0 analysis software (Zeiss).

nuclear translocation of the GFP tagged glucocorticoid receptor (GFP tagged GR)	Structure (SMILES)	induction of apoptosis (CEM-C7A cells)	competition of dexamethasone transactivation (glucocorticoid receptor)
–	CC1CC2C3CCC4=CC(=O)C=CC4(C)C3(F)C(O)CC2(C)C1(O)C(=O)NCCC(=O)O (stereo not shown) [Q]	not	failed to repress dexamethasone transactivation
–	CC1CC2C3CCC4=CC(=O)C=CC4(C)C3(F)C(O)CC2(C)C1(O)C(=O)NCCCO (stereo not shown) [L]	–	failed to repress dexamethasone transactivation
–	CCCOC(=O)C1(O)C(C)CC2C3CCC4=CC(=O)C=CC4(C)C3(F)C(O)CC21C (stereo not shown) [R]	–	failed to repress dexamethasone transactivation
caused nuclear localisation	CC1CC2C3CCC4=CC(=O)C=CC4(C)C3(F)C(O)CC2(C)C12OC(C)(C)OCC2=O (stereo not shown) [Compound A]	most potent inducers of apoptosis	–
failed to cause translocation	Cc1ccc(NC(=O)C2(O)C(C)CC3C4CCC5=CC(=O)C=CC5(C)C4(F)C(O)CC32C)cc1 (stereo not shown) [Compound O]	–	failed to repress dexamethasone transactivation
caused nuclear localisation	CC1CC2C3CCC4=CC(=O)C=CC4(C)C3(F)C(O)CC2(C)C1(O)C(=O)COC(=O)c1ccc(F)cc1 (stereo not shown) [Compound D]	–	–
–	CCCNC(=O)C1(O)C(C)CC2C3CCC4=CC(=O)C=CC4(C)C3(F)C(O)CC21C (stereo not shown) [Compound G]	apoptosis was induced	–
